From US12352767B2, “Method of treating cognitive decline associated with neurological diseases based on a decrease in FLT4 expression or activity” (University of Virginia Patent Foundation, priority 2018, dated 2025)

Test system: Ly6GnegCD45+CD11b+ brain myeloid cells
Assay: Single cell RNA-seq of brain myeloid cells (microglia) of WT and 5xFAD mice (Table 6, Table 7)
Type: in vivo
Parameters: key to Rel. Expr. 5xFAD Vis. + photo: HS-Q7 / Rel. Expr. 5xFAD Vis. + photo: Axl / Rel. Expr. 5xFAD Vis.: Ctdnep1 / Rel. Expr. 5xFAD Vis. + photo: Ctdnep1 / Rel. Expr. 5xFAD Vis.: Fabp5 / Rel. Expr. 5xFAD Vis. + photo: Fabp5 / Rel. Expr. 5xFAD Vis.: Nampt / Rel. Expr. 5xFAD Vis. + photo: Nampt / Rel. Expr. 5xFAD Vis. + photo: Tfdp1 / Rel. Expr. 5xFAD Vis. + photo: Hspb11 / Rel. Expr. 5xFAD Vis.: Tyrobp / Rel. Expr. 5xFAD Vis. + photo: Tyrobp / Rel. Expr. 5xFAD Vis. + photo: Tpt1 / Rel. Expr. 5xFAD Vis.: Fth1 / Rel. Expr. 5xFAD Vis. + photo: Fth1 / Rel. Expr. 5xFAD Vis. + photo: Eef1a1 / Rel. Expr. 5xFAD Vis.: Lgals3bp / Rel. Expr. 5xFAD Vis. + photo: Lgals3bp / Rel. Expr. 5xFAD Vis.: Ifitm3 / Rel. Expr. 5xFAD Vis. + photo: Ifitm3 / Rel. Expr. 5xFAD Vis.: Atp5h / Rel. Expr. 5xFAD Vis. + photo: Atp5h / Rel. Expr. 5xFAD Vis.: Fau / Rel. Expr. 5xFAD Vis. + photo: Fau / Rel. Expr. 5xFAD Vis.: Ftl1 / Rel. Expr. 5xFAD Vis. + photo: Ftl1 / Rel. Expr. 5xFAD Vis.: H2-K1 / Rel. Expr. 5xFAD Vis. + photo: H2-K1 / Rel. Expr. 5xFAD Vis. + photo: Tmsb4x / Rel. Expr. 5xFAD Vis. + photo: Uba52 / Rel. Expr. WT Vis.: Hexb / Rel. Expr. 5xFAD Vis.: Hexb / Rel. Expr. WT Vis.: Lgmn / Rel. Expr. 5xFAD Vis.: Lgmn / Rel. Expr. 5xFAD Vis. + photo: Rtp4 / Rel. Expr. 5xFAD Vis.: Lpl / Rel. Expr. 5xFAD Vis. + photo: Lpl: A “+” refers to relative upregulation of gene expression for the noted conditions; A “-” refers to relative downregulation of gene expression for the noted conditions
Method: Effects of meningeal ablation on gene expression were studied in 5×FAD mice. Single cell RNA-seq of brain myeloid cells from 4 months old wild type (WT) and 5×FAD mice were injected with Visudyne alone (Vis., functional meningeal lymphatics) or injected with Visudyne and subjected to transcranial photoconversion (Vis.+photo., ablated meningeal lymphatics). Meningeal lymphatic ablation step was performed twice within a span of 3 weeks and brain myeloid cells were isolated 3 weeks after the last step. Data were obtained from sorted live Ly6G^negCD45^+CD11b^+ brain myeloid cells pooled from 3 mice per group (FIGS. 14A-B). Unsupervised clustering of brain myeloid single cells using t-distributed Stochastic Neighbor Embedding (t-SNE) plotted by group (FIG. 14A) or by distinct cell cluster (FIG. 14B). Frequency of cells from each cluster within the total 354, 487 and 308 cells from WT Vis., 5×FAD Vis. and 5×FAD Vis.+photo. groups, respectively (FIG. 14C). Genes involved in the acquisition of the disease-associated microglia phenotype, depicting the homeostatic, TREM2-independent and TREM2-dependent signatures within each cell were depicted in a heatmap (FIG. 14D). Cells are grouped by cluster and genes are grouped by signature (FIG. 14D). Upset plots were generated for all cells (FIG. 14E) or cluster 1 cells (FIG. 14F) showing the overlap in differentially expressed genes for comparisons between 5×FAD Vis. or 5×FAD Vis.+photo. and WT Vis. […] Expression values are averaged across cells within each group. Normalized enrichment score for GSEA pathways were obtained by Fisher's exact test with Benjamini-Hochberg corrections for the 24 differentially expressed genes in cluster 1 is shown in FIG. 14H. Enrichment analysis was performed in R using the clusterProfiler package. Depicted in FIG. 14I is a heatmap showing the mean-centered average log normalized expression of each gene contributing to the core-enrichment of the “Lysosome” GSEA pathway. Expression values are averaged across cells within each group. All scales show mean-centered, log-normalized expression values.

[1] = 5xFAD mice, Visudyne + photoconversion, cluster 1 brain myeloid cells
[2] = 5xFAD mice, Visudyne alone, cluster 1 brain myeloid cells
[3] = WT mice, Visudyne alone, cluster 1 brain myeloid cells

## verteporfin [Visudyne]
[1]
  Rel. Expr. 5xFAD Vis. + photo: Atp5h: +
  Rel. Expr. 5xFAD Vis. + photo: Axl: +
  Rel. Expr. 5xFAD Vis. + photo: Ctdnep1: +
  Rel. Expr. 5xFAD Vis. + photo: Eef1a1: +
  Rel. Expr. 5xFAD Vis. + photo: Fabp5: +
  Rel. Expr. 5xFAD Vis. + photo: Fau: +
  Rel. Expr. 5xFAD Vis. + photo: Fth1: +
  Rel. Expr. 5xFAD Vis. + photo: Ftl1: +
  Rel. Expr. 5xFAD Vis. + photo: H2-K1: +
  Rel. Expr. 5xFAD Vis. + photo: HS-Q7: +
  Rel. Expr. 5xFAD Vis. + photo: Hspb11: +
  Rel. Expr. 5xFAD Vis. + photo: Ifitm3: +
  Rel. Expr. 5xFAD Vis. + photo: Lgals3bp: +
  Rel. Expr. 5xFAD Vis. + photo: Lpl: +
  Rel. Expr. 5xFAD Vis. + photo: Nampt: +
  Rel. Expr. 5xFAD Vis. + photo: Rtp4: +
  Rel. Expr. 5xFAD Vis. + photo: Tfdp1: +
  Rel. Expr. 5xFAD Vis. + photo: Tmsb4x: +
  Rel. Expr. 5xFAD Vis. + photo: Tpt1: +
  Rel. Expr. 5xFAD Vis. + photo: Tyrobp: +
  Rel. Expr. 5xFAD Vis. + photo: Uba52: +
[2]
  Rel. Expr. 5xFAD Vis.: Atp5h: +
  Rel. Expr. 5xFAD Vis.: Ctdnep1: +
  Rel. Expr. 5xFAD Vis.: Fabp5: +
  Rel. Expr. 5xFAD Vis.: Fau: +
  Rel. Expr. 5xFAD Vis.: Fth1: +
  Rel. Expr. 5xFAD Vis.: Ftl1: +
  Rel. Expr. 5xFAD Vis.: H2-K1: +
  Rel. Expr. 5xFAD Vis.: Hexb: +
  Rel. Expr. 5xFAD Vis.: Ifitm3: +
  Rel. Expr. 5xFAD Vis.: Lgals3bp: +
  Rel. Expr. 5xFAD Vis.: Lgmn: +
  Rel. Expr. 5xFAD Vis.: Lpl: +
  Rel. Expr. 5xFAD Vis.: Nampt: +
  Rel. Expr. 5xFAD Vis.: Tyrobp: +
5xFAD mice, Visudyne with photo ablation, brain myeloid cells
  expression of genes of the GSEA lysosome pathway (Table 7, FIG. 14I): relatively downregulated
Visudyne + photoconversion twice within 3 weeks
  expression of 24 genes (Table 6) in cluster 1 brain myeloid cells, 5xFAD Vis.+photo. vs WT Vis.: significantly different
Visudyne alone, no photoconversion
  expression of 24 genes (Table 6) in cluster 1 brain myeloid cells, 5xFAD Vis. vs WT Vis.: not significantly different
[3]
  Rel. Expr. WT Vis.: Hexb: +
  Rel. Expr. WT Vis.: Lgmn: +
